ChEMBL document CHEMBL1149924, “Structure activity studies on pseudo-symmetrical HIV-1 protease inhibitors” (Bioorg Med Chem Lett, 1993)

What was measured:
MT2 = assay: Compound was evaluated for its inhibitory activity against HIV-1-IIIB infected MT2 cells (human T lymphoid cells); format: functional, cell-based
[1] = target: T1, Human immunodeficiency virus type 1 protease (Human immunodeficiency virus 1, UniProt Q72874); assay: Inhibitory activity against HIV-1 protease
[2] = target: T1, Human immunodeficiency virus type 1 protease; assay: Compound was evaluated for its inhibitory activity in recombinant HIV-l protease
[3] = target: T1, Human immunodeficiency virus type 1 protease; assay: Compound was evaluated for its binding affinity against HIV-1 protease using [125I]-SPA (scintillation proximity assay)
[4] = target: T1, Human immunodeficiency virus type 1 protease; assay: Compound was evaluated for its inhibitory activity against recombinant HIV-1 protease using [125I]-SPA (scintillation proximity assay)

Row | SMILES | IC50 (MT2) [nM] | IC50 [1] [nM] | other results
1 | COC(=O)[C@@H](NC(=O)[C@@H](NC(=O)[C@H](Cc1ccccc1)CC(O)C[C@@H](Cc1ccccc1)C(=O)N[C@H](C(=O)N[C@H](C(=O)OC)C(C)C)C(C)C)C(C)C)C(C)C | 1600 | 5 | 
2 | CC[C@H](C)[C@H](NC(=O)[C@H](Cc1ccccc1)CC(O)C[C@@H](Cc1ccccc1)C(=O)N[C@H](C(=O)NCC1CCc2ccccc2N1)[C@@H](C)CC)C(=O)NCC1CCc2ccccc2N1 (stereo not given in full) | 7500 |  | IC50 [2]: 1200 nM
3 | CC[C@H](C)[C@H](NC(=O)[C@H](Cc1ccccc1)CC(O)C[C@@H](Cc1ccccc1)C(=O)N[C@H](C(=O)NCc1ccccn1)[C@@H](C)CC)C(=O)NCc1ccccn1 | 500 |  | IC50 [2]: 450 nM
4 | CC(C)CNC(=O)[C@H](Cc1ccccc1)CC(O)C[C@@H](Cc1ccccc1)C(=O)NCC(C)C |  | > 1000 | 
5 | CCCC[C@H](CC(O)C[C@@H](CCCC)C(=O)N[C@H](C(=O)N[C@H](C(=O)OC)C(C)C)C(C)C)C(=O)N[C@H](C(=O)N[C@H](C(=O)OC)C(C)C)C(C)C |  | 5 | 
6 | COC(=O)[C@@H](NC(=O)[C@@H](NC(=O)[C@@H](CC(=O)C[C@@H](Cc1ccccc1)C(=O)N[C@H](C(=O)N[C@H](C(=O)OC)C(C)C)C(C)C)Cc1ccccc1)C(C)C)C(C)C |  | > 10000 | 
7 | CC(C)[C@H](NC(=O)[C@H](Cc1ccccc1)CC(O)C[C@@H](Cc1ccccc1)C(=O)N[C@H](C(=O)NCc1nc2ccccc2[nH]1)C(C)C)C(=O)NCc1nc2ccccc2[nH]1 | 2100 | 10 | 
8 | COC(=O)[C@H](Cc1ccccc1)NC(=O)[C@@H](NC(=O)[C@H](Cc1ccccc1)CC(O)C[C@@H](Cc1ccccc1)C(=O)N[C@H](C(=O)N[C@@H](Cc1ccccc1)C(=O)OC)C(C)C)C(C)C | 2400 | 10 | 
9 | CC[C@H](C)[C@H](NC(=O)[C@H](Cc1ccccc1)CC(O)C[C@@H](Cc1ccccc1)C(=O)N[C@H](C(=O)NCCN1CCOCC1)[C@@H](C)CC)C(=O)NCCN1CCOCC1 | > 10000 |  | IC50 [2]: 850 nM
10 | CCCC[C@H](CC1(C[C@@H](CCCC)C(=O)N[C@@H](CC(C)C)C(=O)N[C@@H](Cc2ccccc2)C(=O)OC)CO1)C(=O)N[C@@H](CC(C)C)C(=O)N[C@@H](Cc1ccccc1)C(=O)OC |  | 400 | 
11 | CCCC[C@H](CC(O)C[C@@H](CCCC)C(=O)N[C@@H](C)C(=O)N[C@@H](C)C(=O)OC)C(=O)N[C@@H](C)C(=O)N[C@@H](C)C(=O)OC |  | 75 | 
12 | COC(=O)[C@H](Cc1ccccc1)NC(=O)[C@H](CC(C)C)NC(=O)[C@H](Cc1ccccc1)CC(O)C[C@@H](Cc1ccccc1)C(=O)N[C@@H](CC(C)C)C(=O)N[C@@H](Cc1ccccc1)C(=O)OC | 2300 | 30 | 
13 | CC[C@H](C)[C@H](NC(=O)[C@H](Cc1ccccc1)CC(O)C[C@@H](Cc1ccccc1)C(=O)N[C@H](C(=O)NCc1nc2ccccc2[nH]1)[C@@H](C)CC)C(=O)NCc1nc2ccccc2[nH]1 | 400 | 3 | Ki [3]: 3.5 nM; IC50 [4]: 40000 nM
14 | CCCC[C@H](CC(O)C[C@@H](CCCC)C(=O)N[C@@H](CC(C)C)C(=O)N[C@@H](Cc1ccccc1)C(=O)OC)C(=O)N[C@@H](CC(C)C)C(=O)N[C@@H](Cc1ccccc1)C(=O)OC |  | 90 | 
15 | CCCC[C@H](CC(O)(CO)C[C@@H](CCCC)C(=O)N[C@@H](CC(C)C)C(=O)N[C@@H](Cc1ccccc1)C(=O)OC)C(=O)N[C@@H](CC(C)C)C(=O)N[C@@H](Cc1ccccc1)C(=O)OC |  | 2000 | 
